pIC50: −log10 of the molar value.
Legend:
[1] = molecular target: Neuraminidase (Influenza A virus (strain A/Wilson-Smith/1933 H1N1) (Influenza A virus(strain A/WS/1933 H1N1)), UniProt P03470); assay: Inhibition of MDCK infected Influenza A virus A/WSN/33(H1N1) neuraminidase using MU-NANA as substrate preincubated for 30 mins followed by substrate addition measured after 1 hr by spectrofluorometric method; format: cell-based, Influenza A virus (A/WSN/1933(H1N1))
[2] = Inhibition of MDCK infected Influenza A virus A/Taiwan/3446/2002(H3N2) neuraminidase using MU-NANA as substrate preincubated for 30 mins followed by substrate addition measured after 1 hr by spectrofluorometric method; format: cell-based
[3] = molecular target: Neuraminidase (Influenza A virus (strain A/Wilson-Smith/1933 H1N1) (Influenza A virus(strain A/WS/1933 H1N1)), UniProt P03470); assay: Competitive inhibition of MDCK infected Influenza A virus A/WSN/33(H1N1) neuraminidase using MU-NANA as substrate preincubated for 30 mins followed by substrate addition measured after 1 hr by spectrofluorometric method; format: cell-based, Influenza A virus (A/WSN/1933(H1N1))
[4] = Competitive inhibition of MDCK infected Influenza A virus A/Taiwan/3446/2002(H3N2) neuraminidase using MU-NANA as substrate preincubated for 30 mins followed by substrate addition measured after 1 hr by spectrofluorometric method

Chain of Neuraminidase (Influenza A virus (strain A/Wilson-Smith/1933 H1N1) (Influenza A virus(strain A/WS/1933 H1N1)), UniProt P03470) (P03470 whole entry): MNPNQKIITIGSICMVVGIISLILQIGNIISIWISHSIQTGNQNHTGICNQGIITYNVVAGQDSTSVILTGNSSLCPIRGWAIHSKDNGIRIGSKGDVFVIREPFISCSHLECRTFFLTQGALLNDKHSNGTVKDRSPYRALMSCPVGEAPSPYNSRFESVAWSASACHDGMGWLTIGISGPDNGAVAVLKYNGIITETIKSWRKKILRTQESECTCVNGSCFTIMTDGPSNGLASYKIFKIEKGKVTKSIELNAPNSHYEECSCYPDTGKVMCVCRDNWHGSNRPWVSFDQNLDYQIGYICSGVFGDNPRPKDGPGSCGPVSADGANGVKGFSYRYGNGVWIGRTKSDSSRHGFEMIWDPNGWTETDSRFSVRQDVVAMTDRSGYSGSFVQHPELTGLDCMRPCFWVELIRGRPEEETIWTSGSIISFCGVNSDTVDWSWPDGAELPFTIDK

Structure (SMILES)	pIC50 [1]	pIC50 [2]	pIC50 [3]	pIC50 [4]
CC(=O)N[C@H]1[C@H]([C@H](O)[C@H](O)CO)OC(C(=O)O)=C[C@@H]1NC(=N)NC(=O)Cn1cc(-c2ccccc2N)nn1	7.92	7.89	–	–
COc1ccccc1-c1cn(CC(=O)NC(=N)N[C@H]2C=C(C(=O)O)O[C@@H]([C@H](O)[C@H](O)CO)[C@@H]2NC(C)=O)nn1	8.10	8.00	–	–
CC(=O)N[C@H]1[C@H]([C@H](O)[C@H](O)CO)OC(C(=O)O)=C[C@@H]1NC(=N)NC(=O)Cn1cc(C2=CCCCC2)nn1	7.82	7.77	–	–
CC(=O)N[C@H]1[C@H]([C@H](O)[C@H](O)CO)OC(C(=O)O)=C[C@@H]1NC(=N)NC(=O)Cn1cc(C2CCCCC2)nn1	8.64	8.54	–	–
COc1ccc(-c2cn(CC(=O)NC(=N)N[C@H]3C=C(C(=O)O)O[C@@H]([C@H](O)[C@H](O)CO)[C@@H]3NC(C)=O)nn2)cc1	7.92	7.77	–	–
CC(=O)N[C@H]1[C@H]([C@H](O)[C@H](O)CO)OC(C(=O)O)=C[C@@H]1NC(=N)NC(=O)Cn1cc(-c2ccc(N)cc2)nn1	7.92	7.89	–	–
CC(=O)N[C@H]1[C@H]([C@H](O)[C@H](O)CO)OC(C(=O)O)=C[C@@H]1NC(=N)NC(=O)CSc1ccc2ccccc2c1	7.70	7.60	–	–
CC(=O)N[C@H]1[C@H]([C@H](O)[C@H](O)CO)OC(C(=O)O)=C[C@@H]1NC(=N)NC(=O)Cn1cc(-c2cccc(F)c2)nn1	7.85	7.77	–	–
CC(=O)N[C@H]1C([C@H](O)[C@H](O)CO)OC(C(=O)O)=C[C@@H]1NC(=N)NC(=O)Cn1cc(-c2ccccc2)nn1 (stereo partly drawn)	–	–	8.00	8.10
CC(=O)N[C@H]1[C@H]([C@H](O)[C@H](O)CO)OC(C(=O)O)=C[C@@H]1NC(=N)NC(=O)Cn1cc(-c2ccc(F)cc2)nn1	7.54	7.57	–	–
CC(=O)N[C@H]1[C@H]([C@H](O)[C@H](O)CO)OC(C(=O)O)=C[C@@H]1NC(=N)NC(=O)Cn1cc(-c2cccc(N)c2)nn1	8.00	7.96	–	–
CCOC(=O)c1cccc(-c2cn(CC(=O)NC(=N)N[C@H]3C=C(C(=O)O)O[C@@H]([C@H](O)[C@H](O)CO)[C@@H]3NC(C)=O)nn2)c1	7.89	7.72	–	–
COc1ccc2cc(-c3cn(CC(=O)NC(=N)N[C@H]4C=C(C(=O)O)O[C@@H]([C@H](O)[C@H](O)CO)[C@@H]4NC(C)=O)nn3)ccc2c1	7.51	7.55	–	–
CC(=O)N[C@H]1[C@H]([C@H](O)[C@H](O)CO)OC(C(=O)O)=C[C@@H]1NC(=N)NC(=O)Cn1cc(-c2cccc(Cl)c2)nn1	8.05	8.10	–	–
CC(=O)N[C@H]1C([C@H](O)[C@H](O)CO)OC(C(=O)O)=C[C@@H]1NC(=N)NC(=O)CCn1cc(-c2ccccc2)nn1 (stereo partly drawn)	–	–	6.84	6.87
CC(=O)N[C@H]1C([C@H](O)[C@H](O)CO)OC(C(=O)O)=C[C@@H]1NC(=N)NC(=O)CCCCn1cc(-c2ccccc2)nn1 (stereo partly drawn)	–	–	6.77	6.96
CC(=O)N[C@H]1[C@H]([C@H](O)[C@H](O)CO)OC(C(=O)O)=C[C@@H]1NC(=N)NC(=O)Cn1cc(-c2ccc(Cl)cc2)nn1	7.82	7.85	–	–
CC(=O)N[C@H]1C([C@H](O)[C@H](O)CO)OC(C(=O)O)=C[C@@H]1NC(=N)NC(=O)CCCn1cc(-c2ccccc2)nn1 (stereo partly drawn)	–	–	6.62	6.64
CC(=O)N[C@H]1[C@H]([C@H](O)[C@H](O)CO)OC(C(=O)O)=C[C@@H]1NC(=N)NC(=O)Cn1cc(-c2ccc(C)cc2)nn1	7.85	7.77	–	–

Source: ChEMBL document CHEMBL3871267, “Design and synthesis of 1,2,3-triazole-containing N-acyl zanamivir analogs as potent neuraminidase inhibitors” (Eur J Med Chem, 2016)
